Values quoted from earlier work, collected in patent US9075045B2, “Cell-based detection of APF through its interaction with CKAP4 for diagnosis of interstitial cystitis” (THE COMMONWEALTH MEDICAL COLLEGE, priority 2008, dated 2015).
Read-outs that look alike come from different tables or passages of the source.

C[S+](C)[O-] [dimethyl sulfoxide]
effect on IC symptoms (bladder instillation every week or two for 6 to 8 weeks): improve symptoms temporarily

Bacillus Calmette-Guerin
effect on IC symptoms (intravesicular agent): improve symptoms

Pentosan polysulfate sodium
improved symptoms in % of patients (given orally (100 mg three times a day)): 30%
